Results published in ChEMBL document CHEMBL1201862, “PubChem BioAssay data set” (2004).
Values belong to the molecule of their own block, whether it stands above or below them. Active and inactive are the calls of the source.

Experiments:
[1] = molecular target: Scavenger receptor class B member 1 (Mus musculus, UniProt Q61009); experiment: mouse SR-BI DiI-HDL uptake blockers – ldlA[mSR-BI] cells, fluorescence, cherry pick, dose response (AID 493194); type: functional, cell-based;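 note: cellular uptake of fluorescent DiI-labeled HDL measured as cell fluorescence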
Sequence of Scavenger receptor class B member 1 (Q61009 whole entry, the tested form may be a part): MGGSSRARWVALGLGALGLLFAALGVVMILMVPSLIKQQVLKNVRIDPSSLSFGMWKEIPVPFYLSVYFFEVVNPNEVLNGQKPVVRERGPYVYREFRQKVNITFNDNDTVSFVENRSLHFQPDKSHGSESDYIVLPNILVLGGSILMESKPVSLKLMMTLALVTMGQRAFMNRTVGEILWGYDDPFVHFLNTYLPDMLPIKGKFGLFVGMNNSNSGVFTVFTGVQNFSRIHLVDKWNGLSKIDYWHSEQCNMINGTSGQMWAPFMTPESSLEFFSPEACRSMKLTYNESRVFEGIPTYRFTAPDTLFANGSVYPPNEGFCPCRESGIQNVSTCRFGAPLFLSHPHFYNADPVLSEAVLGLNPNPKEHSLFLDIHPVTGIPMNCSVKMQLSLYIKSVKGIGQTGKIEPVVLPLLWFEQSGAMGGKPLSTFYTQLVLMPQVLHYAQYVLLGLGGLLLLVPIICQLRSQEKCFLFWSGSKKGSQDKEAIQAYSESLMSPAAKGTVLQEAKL

[2] = CCR5-tropic HIV-1 fusion blockers – cell-based, CCR5-tropic Env, dose response (AID 2279); type: functional
HEK293 [3] = experiment: PMA/Ionomycin induced NF-kB luciferase assay in 293- NF-kB-Luc stable cells. [Related pubchem assays: 1299, 1270, 1295, 1375, 1287, 1281, 1293, 1291, 1289, 1280, 465, 1364, 1282, 1372, 1365, 1370, 1367, 1366, 1269, 1373, 1292, 1290, 1302, 1371, 1283, 1271, 1294, 1374, 1368, 1369 ]; type: functional, cell-based; details: Homo sapiens
[4] = molecular target: Luciferin 4-monooxygenase (Photinus pyralis, UniProt P08659); experiment: In vitro luciferase assay using purified luciferase. [Related pubchem assays: 1299, 1270, 1295, 1375, 1287, 1281, 1293, 1291, 1289, 1280, 465, 1364, 1282, 1372, 1365, 1370, 1367, 1366, 1266, 1373, 1292, 1290, 1302, 1371, 1283, 1271, 1294, 1374, 1368, 1369 ]
Sequence of Luciferin 4-monooxygenase (P08659 whole entry): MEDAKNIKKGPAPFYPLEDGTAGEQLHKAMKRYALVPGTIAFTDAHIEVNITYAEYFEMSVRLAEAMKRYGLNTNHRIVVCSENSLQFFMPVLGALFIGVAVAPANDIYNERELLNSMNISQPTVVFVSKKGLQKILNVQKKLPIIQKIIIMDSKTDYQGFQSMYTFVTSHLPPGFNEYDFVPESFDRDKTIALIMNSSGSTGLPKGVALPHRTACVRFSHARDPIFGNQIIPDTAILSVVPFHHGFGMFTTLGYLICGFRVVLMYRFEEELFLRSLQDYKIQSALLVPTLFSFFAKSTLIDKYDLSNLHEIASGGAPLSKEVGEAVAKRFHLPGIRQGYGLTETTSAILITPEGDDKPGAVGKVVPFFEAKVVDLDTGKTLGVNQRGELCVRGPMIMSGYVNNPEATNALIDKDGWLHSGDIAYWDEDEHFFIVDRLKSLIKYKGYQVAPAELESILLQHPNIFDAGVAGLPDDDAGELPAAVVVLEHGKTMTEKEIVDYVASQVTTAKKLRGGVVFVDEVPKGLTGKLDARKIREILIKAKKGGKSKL

HEK293 [5] = experiment: Cytotoxicity assay in HEK293 cells. [Related pubchem assays (depositor defined):AID1266, AID1269, AID1270, AID1271, AID1280, AID1281, AID1282, AID1283, AID1287, AID1289, AID1290, AID1291, AID1292, AID1293, AID1294, AID1295, AID1299, AID1302, AID1364, AID1365, AID1366, AID1367, AID1369, AID1370, AID1371, AID1372, AID1373, AID1374, AID1375, AID1384 …; type: functional, cell-based; details: Homo sapiens
HEK293 [6] = experiment: EBV LMP1 TES2 canonical NF-kB signalling blockers – cell-based, HEK293, luciferase, cherry-pick, dose response (AID 588343); type: functional; details: Homo sapiens
Genome polyprotein = Genome polyprotein (Hepatitis C virus, UniProt Q2Q167); experiment: disruption of hepatitis C core self-association – biochemical, TR-FRET, dose response (AID 2159); parameters: species or system Hepacivirus hominis;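 note: blocks dimerization of HCV core protein measured by TR-FRET between tagged core106 pairs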
Sequence of Genome polyprotein (Q2Q167 whole entry): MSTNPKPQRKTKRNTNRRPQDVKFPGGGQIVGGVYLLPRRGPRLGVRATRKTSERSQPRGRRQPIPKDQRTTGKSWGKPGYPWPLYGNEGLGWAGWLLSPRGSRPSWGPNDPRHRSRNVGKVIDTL

[7] = molecular target: Serine/threonine-protein phosphatase PP1-alpha catalytic subunit (Homo sapiens, UniProt P62136); experiment: inhibition of protein phosphatase 1 activity – biochemical, fluorescence, dose response (AID 2403);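 note: phosphatase turnover of OMFP into fluorescent 3-O-methylfluorescein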
Sequence of Serine/threonine-protein phosphatase PP1-alpha catalytic subunit (P62136 whole entry): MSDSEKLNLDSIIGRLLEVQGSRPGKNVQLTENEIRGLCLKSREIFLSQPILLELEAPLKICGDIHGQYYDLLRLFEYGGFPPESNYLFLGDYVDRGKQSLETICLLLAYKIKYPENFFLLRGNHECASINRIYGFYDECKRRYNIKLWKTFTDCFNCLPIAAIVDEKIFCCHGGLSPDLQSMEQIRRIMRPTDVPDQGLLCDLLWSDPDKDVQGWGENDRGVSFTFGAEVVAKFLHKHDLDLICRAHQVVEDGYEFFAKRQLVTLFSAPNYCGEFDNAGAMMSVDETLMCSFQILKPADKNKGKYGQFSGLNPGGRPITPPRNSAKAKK

[8] = molecular target: Serine/threonine-protein phosphatase (Homo sapiens, UniProt Q9BPW0); experiment: Counterscreen for inhibitors of PP1: fluorescence-based biochemical high throughput dose response assay to identify inhibitors of Protein Phosphatase 5 (PP5). [Related pubchem assays: 2034 (Summary (PP5 inhibitors)), 1987 (PP5 inhibitors in singlate), 2235 (PP1 inhibitors in singlate)]
Sequence of Serine/threonine-protein phosphatase (Q9BPW0 whole entry): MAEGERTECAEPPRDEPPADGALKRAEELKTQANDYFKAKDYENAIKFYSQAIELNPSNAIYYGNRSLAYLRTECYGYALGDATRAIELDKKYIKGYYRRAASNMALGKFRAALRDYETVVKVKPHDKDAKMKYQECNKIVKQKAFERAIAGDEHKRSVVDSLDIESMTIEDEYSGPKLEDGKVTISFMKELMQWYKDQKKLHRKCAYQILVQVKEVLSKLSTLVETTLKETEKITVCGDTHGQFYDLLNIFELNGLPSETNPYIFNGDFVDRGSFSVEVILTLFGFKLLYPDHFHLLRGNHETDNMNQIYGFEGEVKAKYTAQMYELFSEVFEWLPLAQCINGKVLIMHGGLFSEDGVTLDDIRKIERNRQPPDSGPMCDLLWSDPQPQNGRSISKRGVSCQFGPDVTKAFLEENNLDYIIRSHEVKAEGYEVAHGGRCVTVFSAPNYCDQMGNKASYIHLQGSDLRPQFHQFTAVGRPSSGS

[9] = molecular target: 26S proteasome non-ATPase regulatory subunit 14 (Homo sapiens, UniProt O00487); experiment: inhibition of proteasome subunit RPN11 – biochemical, fluorescence polarization, uHTS hits, confirmation (AID 602368); type: functional
Sequence of 26S proteasome non-ATPase regulatory subunit 14 (O00487 whole entry): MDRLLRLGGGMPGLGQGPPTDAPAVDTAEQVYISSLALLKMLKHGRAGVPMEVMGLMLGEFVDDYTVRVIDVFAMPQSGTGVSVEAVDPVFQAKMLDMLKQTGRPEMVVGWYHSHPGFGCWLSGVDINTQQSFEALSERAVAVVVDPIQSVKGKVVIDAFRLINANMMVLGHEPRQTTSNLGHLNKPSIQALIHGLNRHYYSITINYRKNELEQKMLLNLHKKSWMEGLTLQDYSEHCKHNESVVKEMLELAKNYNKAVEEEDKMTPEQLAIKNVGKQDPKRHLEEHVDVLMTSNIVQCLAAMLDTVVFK

[10] = molecular target: 72 kDa type IV collagenase (Homo sapiens, UniProt P08253); experiment: Dose Response validation of uHTS RPN11 inhibitor hits using a MMP-2 Fluorescence assay.; type: functional
Sequence of 72 kDa type IV collagenase (P08253 whole entry): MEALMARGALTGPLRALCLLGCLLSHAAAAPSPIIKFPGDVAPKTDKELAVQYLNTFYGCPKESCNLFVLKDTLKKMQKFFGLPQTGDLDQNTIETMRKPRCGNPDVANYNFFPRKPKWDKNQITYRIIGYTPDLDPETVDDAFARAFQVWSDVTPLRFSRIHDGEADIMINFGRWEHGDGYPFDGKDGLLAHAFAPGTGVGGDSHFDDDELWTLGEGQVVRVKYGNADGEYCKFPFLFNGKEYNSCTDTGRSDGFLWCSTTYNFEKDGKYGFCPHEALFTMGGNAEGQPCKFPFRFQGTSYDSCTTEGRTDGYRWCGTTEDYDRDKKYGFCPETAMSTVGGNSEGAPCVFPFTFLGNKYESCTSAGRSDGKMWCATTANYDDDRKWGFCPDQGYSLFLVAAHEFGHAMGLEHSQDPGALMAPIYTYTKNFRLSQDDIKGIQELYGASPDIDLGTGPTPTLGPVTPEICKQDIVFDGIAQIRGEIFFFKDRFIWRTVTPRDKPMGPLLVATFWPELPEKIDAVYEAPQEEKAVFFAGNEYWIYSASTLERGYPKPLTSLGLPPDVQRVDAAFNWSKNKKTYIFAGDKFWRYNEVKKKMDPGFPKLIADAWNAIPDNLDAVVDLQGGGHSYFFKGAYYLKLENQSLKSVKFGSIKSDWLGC

Prothrombin = Prothrombin (Bos taurus, UniProt P00735); experiment: thrombin protease inhibitors – biochemical, fluorescence polarization, uHTS hits, dose response (AID 602369); type: functional
[11] = molecular target: T1, Small ubiquitin-related modifier 1 (Homo sapiens, UniProt P63165); experiment: SUMO1 protein interaction blockers, potency – biochemical, fluorescence polarization, uHTS hits, dose response (AID 624382); type: functional; details: read-out: IC50_Mean
T1 sequence (P63165 whole entry): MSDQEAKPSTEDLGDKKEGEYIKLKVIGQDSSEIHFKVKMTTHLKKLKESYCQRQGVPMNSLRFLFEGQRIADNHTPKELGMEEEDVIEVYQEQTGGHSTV

[12] = molecular target: T1, Small ubiquitin-related modifier 1; experiment: SUMO1 protein-protein binding blockers, potency – biochemical, FRET, dose response (AID 624383); type: functional; details: read-out: IC50_Mean
Vero = experiment: host cell viability loss, Vero E6 – synthesized analogs, cytotoxicity control for West Nile virus antiviral project, SAR follow-up (AID 2244); type: functional; details: Chlorocebus sabaeus

- AC50 [1]: 90.7 µM (active)
Compound: CN1CCc2ccc(NC(=O)c3ccc(C(F)(F)F)cc3)cc2C1

Compound: COc1ccc(C(=O)/C=C/c2cccc(OCc3ccccc3)c2)cc1CSCC(=O)O
- IC50 [2]: 18.7 µM (active)

Compound: COc1cc(OC)cc(-c2cc3nc(C)c(CCC(=O)O)c(C)n3n2)c1
- EC50 (HEK293 [3]): 4.19 µM (not active)
- EC50 [4]: > 8 µM (not active)
- EC50 (HEK293 [5]): > 8 µM (inactive)
- AC50 (HEK293 [6]): 0.719 µM (active)

Compound: CCOc1ccc(NC(=O)c2ccc(NC(=O)COC(=O)c3ccc(NC(=O)CC#N)cc3)cc2)cc1
- IC50 (Genome polyprotein): > 49.8 µM (not active)
- IC50 [7]: 6.8 µM (active)
- IC50 [8]: > 67 µM (not active)
- IC50 [9]: 15.9 µM (active)
- IC50 [10]: > 100 µM (inactive)
- IC50 (Prothrombin): 55.4 µM (active)
- IC50 [11]: > 66.6 µM (inactive)
- IC50 [12]: 2.11 µM (active)

Compound: O=C(Nc1nc(-c2ccc(Cl)cc2)cs1)c1ccc(I)cc1
- CC50 (Vero): > 40 µM (active)
